Reference: patent US12103925B2, “Crystal and amorphous form of tolebrutinib, preparation method therefor, and use thereof” (HANGZHOU SOLIPHARMA CO., LTD., priority 2021, dated 2024)
Converted amounts (≈) assume the structure as drawn. “And” between values parts separate entries of the source, which are not always exact repeats. Equal values may be shown once. “Also recorded” adds a separate entry of the source.

Key:
Format in all cases: physicochemical
[1] = Dynamic moisture adsorption analysis (DVS), hygroscopicity
Description: In this application, dynamic moisture adsorption analysis (DVS) data and isothermal adsorption analysis data were obtained using a TA Instruments Q5000 TGA; parameters are as follows: temperature: 25° C.; relative humidity range: 0% RH-80% RH; dm/dt=0.001%/min; equilibration time: gas: N2; sample pan: platinum pan.

[2] = Solid form before and after the tableting process (XRPD); settings: XRPD comparison
Text: (§1) Following the formulation in Table 6, API, lactose hydrate, polyvinylpyrrolidone, hydroxypropyl cellulose, microcrystalline cellulose and magnesium stearate were mixed and compressed to obtain a tablet core. Subsequently, the tablet cores are coated with a solution/suspension for film coating, resulting in the preparation of the tablets.

[3] = Stability under light and oxidation conditions; settings: for time the form remains stable under light: light (25° C./4500 lx/closed); for chemical purity before and after storage: light and oxidation conditions, 14 days; for time the form remains stable under oxidation: oxidation (in an atmosphere of carbamide peroxide)
[4] = Solubility study in pH 1.2 buffer solution and pH 1.2 SGF (HPLC); settings: for Solubility, pH 1.2 SGF: pH 1.2 SGF (with pepsin)
Description: (§2) In this application, the HPLC parameters for chemical stability and solubility are as follows:
The amorphous form of tolebrutinib, Form 1 and Form 2 samples of the present application were studied using pH 1.2 buffer solution (preparation: 375.90 mg potassium chloride solid and 1709.47 mg concentrated hydrochloric acid (37%) were added to a 100 mL volumetric flask, 80 mL of pure water was added, adjusted the pH to 1.2 with hydrochloric acid or potassium hydroxide, q.s. to volume) and pH 1.2 SGF (preparation: In 765 μL of concentrated hydrochloric acid (37%) added about 80 mL of water, 1 g of pepsin, 200 mg chlorinated sodium, shook, diluted with water to 100 mL) to form a supersaturated solution, and the dissolved content of the sample in the saturated solution was determined by high performance liquid chromatography (HPLC) at a fixed time point.

[5] = Stability study under long-term and accelerated conditions (XRPD and HPLC); settings: for Purity after placing / sample after placing / chemical purity before and after storage: 10 months; for Purity after placing: HPLC; for sample after placing: XRPD; for time the solid form remains unchanged / stable: both long-term (25° C./60% RH/open) and accelerated (40° C./75% RH/open) conditions; for chemical purity before and after storage: long-term and accelerated conditions
Description: In this application, X-ray powder diffraction (XRPD) data were collected using a BrukerD8 Advance diffractometer; parameters are as follows: Cu radiation; wavelength: 1.54 Å; Current voltage: 40 KV, 40 mA; Scan range: 3˜40′2θ.
as §2
[…] Regular testing using XRPD and HPLC was performed.
(§3) […] Regular testing using XRPD and HPLC were performed.
as §3

[6] = Compressibility study (tablet compression, hardness, tensile strength); settings: for tensile strength: calculated, T=2H/πDL*9.8; for diameters / thicknesses: circular tablets, 7.5 mm punch; for diameters / thicknesses / hardness: mean main pressure 1.8 KN; for hardness: radial breaking force, tablet hardness tester
Description: The tablet compression was conducted using a Tianxiang rotary tablet press. A circular punch with a diameter of 7.5 mm (07.5 mm) was selected, a filling depth of 17.9 mm and a mean main pressure of 1.8 KN was used to form circular tablets. The tablets' radial breaking force (hardness, H) was measured using a tablet hardness tester. The tablets' diameter (D) and thickness (L) were measured using a vernier caliper. The tensile strength (T) of the powder was calculated using the formula T=2H/πDL*9.8.

[7] = Stability of the solid form in tablets at 25° C./60% RH (XRPD); settings: XRPD before and after storage
Description: as §1
The prepared amorphous tablets, Form 1 tablets and Form 2 tablets were individually placed at 25° C./60% RH for 14 days. XRPD tests were performed before and after storage.

[8] = Polarized light microscope (PLM) particle size; settings: PLM image
Description: In this application, the polarized light microscope (PLM) images were collected using a XPV˜990E polarized light microscope; a small amount of powder sample was placed on a glass slide, a small amount of mineral oil was added dropwise to disperse the sample, a cover glass was placed on the slide, and the sample was placed on the slide. Observing and taking pictures on the stage.

[9] = Competitive slurry experiments
[10] = listed as amorphous form of tolebrutinib
[11] = listed as amorphous tolebrutinib
[12] = pH 1.2 buffer and pH 1.2 SGF (medium simulating the physiological pH of the human stomach)
[13] = pH 1.2 buffer solution, 2 hours

solid form before and after the tableting process [2]	Solubility, pH 1.2 SGF ([4]; 2 hours) [mg/mL]	Purity after placing ([5]; 40° C./75% RH/open)	sample after placing ([5]; 40° C./75% RH/open)	tensile strength [6] [MPa]	diameters [6] [mm]	thicknesses [6] [mm]	hardness [6] [kg]	particle size [8] [μm]	time the form remains stable under light [3]	chemical purity before and after storage [3]	time the form remains stable under oxidation [3]	solubility, approximate level [4, 12]	Solubility, pH 1.2 buffer solution [4, 13] [mg/mL]	Purity after placing ([5]; 25° C./60% RH/open) [%]	sample after placing ([5]; 25° C./60% RH/open)	time the solid form remains unchanged / stable [5] [months]	SMILES	other results
remained unchanged	36.76	98.00%	Amorphous	1.4	7.49	4.15	7.18	–	–	–	–	–	–	–	–	–	C=CC(=O)N1CCC[C@@H](n2c(=O)n(-c3ccc(Oc4ccccc4)cc3)c3c(N)nccc32)C1 [Amorphous, tolebrutinib]	DVS weight gain ([1]; between 20% RH and 80% RH, 25° C., listed as amorphous form of tolebrutinib): about 1.9%; DVS weight gain ([1]; between 20% RH and 80% RH, 25° C., listed as sample 1-1): about 1.9%; time the form remains stable under light [3, 10]: 14 days; time the form remains stable under light [3, 11]: at least 14 days; chemical purity before and after storage [3, 10]: no essential change; chemical purity before and after storage [3, 11]: essentially unchanged; time the form remains stable under oxidation [3, 10]: 14 days; time the form remains stable under oxidation [3, 11]: at least 14 days; solubility compared with the crystal forms [4]: surpassing that of Tolebrutinib Form 1 and Form 2; solubility ([4]; pH 1.2 buffer solution and pH 1.2 SGF, pH 1.2, simulated gastric fluid, thermodynamic from solid, pH 1.2 buffer and pH 1.2 SGF (medium simulating the physiological pH of the human stomach), read-out: solubility, approximate level): ~20 mg/mL (≈ 43.9 mM); solubility at 2 hours ([4]; pH 1.2 buffer solution, pH 1.2, simulated gastric fluid, thermodynamic from solid, 2 hours): 29.1 mg/mL (≈ 63.8 mM); Purity after placing ([5]; 25° C./65% RH/open): 98.87%; sample after placing ([5]; 25° C./65% RH/open): Amorphous; Purity after placing ([5]; 40° C./75% RH/open, listed as amorphous form of tolebrutinib): 98.0%; time the solid form remains unchanged / stable [5, 10]: 10 months; time the solid form remains unchanged / stable [5, 11]: 10 months; chemical purity before and after storage [5, 10]: essentially unchanged; chemical purity before and after storage [5, 11]: essentially unchanged; time the solid form remains unchanged / stable in the formulation (tablets) [7, 10]: 14 days
remained unchanged	18.28	99.5% and 99.54%	Form 1	1.3	7.51	4.18	6.40	≤ 10	at least 14 days	basically unchanged	at least 14 days	approximately 20 mg/mL	21.19	99.77	Form 1	10	C=CC(=O)N1CCC[C@@H](n2c(=O)n(-c3ccc(Oc4ccccc4)cc3)c3c(N)nccc32)C1 [Form 1, tolebrutinib]	DVS weight gain ([1]; between 20% RH and 80% RH, 25° C., listed as sample 2-1): about 0.46%; solubility, approximate level ([4]; pH 1.2 buffer and pH 1.2 SGF (medium simulating the physiological pH of the human stomach), listed as Tolebrutinib Form 1): around 20 mg/mL; time the solid form remains unchanged / stable ([5]; listed as Tolebrutinib Form 1): at least 10 months; chemical purity before and after storage ([5]; listed as Tolebrutinib Form 1): basically unchanged; also recorded: essentially unchanged; time the solid form remains unchanged / stable in the formulation (tablets) ([7]; listed as Tolebrutinib Form 1): at least 14 days
remained unchanged	32.45	98.24%	Form 2	1.7	7.51	4.18	8.31	≤ 10	at least 14 days	basically unchanged	at least 14 days	approximately 20 mg/mL	21.44	98.87	Form 2	10	C=CC(=O)N1CCC[C@@H](n2c(=O)n(-c3ccc(Oc4ccccc4)cc3)c3c(N)nccc32)C1 [Form 2, tolebrutinib]	DVS weight gain ([1]; between 0% RH and 80% RH, listed as Tolebrutinib Form 2): 0.3%; DVS weight gain ([1]; between 0% RH and 80% RH, listed as sample 3-1): about 0.34%; thermodynamic stability [9]: thermodynamically stable form at temperatures of 30 °C and above; time the solid form remains unchanged / stable ([5]; listed as tolebrutinib Form 2): at least 10 months; chemical purity before and after storage ([5]; listed as Tolebrutinib Form 2): essentially unchanged; chemical purity before and after storage ([5]; listed as tolebrutinib Form 2): basically unchanged; time the solid form remains unchanged / stable in the formulation (tablets) ([7]; listed as Tolebrutinib Form 2): at least 14 days
